Numbering of substitutions follows the chain as printed. Read-outs that look alike come from different tables or passages of the source.
What was measured:
[1] = molecular target: T1, RET (Homo sapiens, UniProt P07949); experiment: Kinase panel inhibition, radiolabeled [γ-33P] ATP (Reaction Biology Corp); assay type: biochemical; conditions: for remaining activity at 1 µM: compound at 1 uM, ATP 10 µM, read-out: % Enzyme Activity (relative to DMSO controls) RET; for IC50: read-out: Enzymatic inhibitory activity (IC50) nM RET
T1 construct: purchased Reaction Biology Corp

[2] = molecular target: T2, RET(G810R) (Homo sapiens, UniProt P07949, G810R); experiment: as above; assay type: biochemical; conditions: for remaining activity at 1 µM: compound at 1 uM, ATP 10 µM, read-out: % Enzyme Activity (relative to DMSO controls) G810R; for IC50: read-out: Enzymatic inhibitory activity (IC50) nM G810R
T2 construct: purchased Reaction Biology Corp

[3] = molecular target: T3, RET(V804M) (Homo sapiens, UniProt P07949, V804M); experiment: as above; assay type: biochemical; conditions: for remaining activity at 1 µM: compound at 1 uM, ATP 10 µM, read-out: % Enzyme Activity (relative to DMSO controls) V804M; for IC50: read-out: Enzymatic inhibitory activity (IC50) nM V804M
T3 construct: purchased Reaction Biology Corp

[4] = molecular target: T4, RET(V804M)-KIF5B (Homo sapiens, UniProt P07949, V804M); experiment: as above; assay type: biochemical
T4 sequence (P07949 713-1114 V804M): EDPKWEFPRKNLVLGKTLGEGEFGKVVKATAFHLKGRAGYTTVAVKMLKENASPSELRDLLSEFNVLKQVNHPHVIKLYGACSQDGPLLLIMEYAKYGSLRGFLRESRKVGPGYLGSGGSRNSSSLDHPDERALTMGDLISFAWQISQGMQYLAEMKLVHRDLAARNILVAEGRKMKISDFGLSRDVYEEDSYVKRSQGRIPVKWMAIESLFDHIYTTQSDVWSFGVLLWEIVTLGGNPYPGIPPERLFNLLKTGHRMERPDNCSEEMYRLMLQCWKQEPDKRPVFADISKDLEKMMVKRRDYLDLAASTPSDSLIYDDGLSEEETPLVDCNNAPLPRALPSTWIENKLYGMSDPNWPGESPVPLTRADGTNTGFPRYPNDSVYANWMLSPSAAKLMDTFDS
T4 sequence (P33176 2-575 partner): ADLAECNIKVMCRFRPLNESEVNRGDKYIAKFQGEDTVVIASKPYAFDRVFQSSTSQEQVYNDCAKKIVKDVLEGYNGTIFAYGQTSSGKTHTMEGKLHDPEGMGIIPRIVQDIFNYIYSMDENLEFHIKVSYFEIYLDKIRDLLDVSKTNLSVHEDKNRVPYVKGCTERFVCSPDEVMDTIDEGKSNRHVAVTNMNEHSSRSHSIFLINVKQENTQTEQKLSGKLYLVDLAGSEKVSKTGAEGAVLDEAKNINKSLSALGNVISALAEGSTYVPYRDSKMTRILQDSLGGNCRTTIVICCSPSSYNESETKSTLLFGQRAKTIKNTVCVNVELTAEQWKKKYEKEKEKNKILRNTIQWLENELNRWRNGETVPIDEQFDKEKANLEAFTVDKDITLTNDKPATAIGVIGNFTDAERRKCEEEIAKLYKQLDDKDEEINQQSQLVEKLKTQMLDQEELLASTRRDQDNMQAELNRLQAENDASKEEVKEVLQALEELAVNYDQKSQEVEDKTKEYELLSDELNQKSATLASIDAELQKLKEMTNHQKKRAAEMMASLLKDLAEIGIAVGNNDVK

[5] = molecular target: T5, RET-CCDC6 (PTC1) (Homo sapiens, UniProt P07949); experiment: as above; assay type: biochemical; conditions: for remaining activity at 1 µM: compound at 1 uM, ATP 10 µM, read-out: % Enzyme Activity (relative to DMSO controls) RET-CCDC6 (PTC1); for remaining activity at 10 µM: compound at 10 uM, ATP 1 µM
T5 construct: purchased Reaction Biology Corp

[6] = molecular target: T6, KIF5B-RET (Homo sapiens, UniProt P07949); experiment: as above; assay type: biochemical; conditions: read-out: Enzymatic inhibitory activity (IC50) nM KIF5B-RET
T6 sequence (P07949 713-1114): T4 sequence (P07949 713-1114 V804M) with M92V
T6 sequence (P33176 2-575 partner): T4 sequence (P33176 2-575 partner)
Description: The inhibitory activities of the example and intermediate compounds of the present invention against a kinase panel (Reaction Biology Corp) of RET and RET mutations (RET(G810R), RET(V804M), KIF5B-RET, RET(V804M)-KIF5B, RET-CCDC6, RET-NCOA4, and RET(G810S/M918T)) were investigated. Using radiolabeled ATP ([γ-33P] ATP), the degree to which the substrate was replaced by a 33P-phosphorylated substrate was measured, and changes in kinase activity were determined from the measurement of the radiolabeled phosphorylated substrate. The example and intermediate compounds were tested at concentrations of 0.1 µM to 30 µM against ATP concentrations of 1 µM or 10 µM. The residual activity (%) of the example and intermediate compounds after inhibition against each kinase panel is shown in Tables 3 to 5 below. […]

[7] = tested on: BaF3-RET(V804M); experiment: Cell proliferation inhibition (GI50), Cell Counting Kit-8, Ba/F3 cell line; assay type: cell-based, rodent; conditions: Mus musculus, BaF3; 72 hours incubation; Cell Counting Kit-8; read-out: GI50 of BaF3-RET(V804M)
Description: To evaluate the inhibitory activity of the compounds represented by Formula I or Formula IV according to the present invention against RET mutation-driven cell growth in the Ba/F3 cell line and against cell growth in the non-small cell lung cancer cell line A-549, the following experiment was performed.
Each cell line was seeded in a 96-well plate at 1×10^4 cells/90 µL/well, and 10 µL/well of culture medium containing each example and intermediate compound or DMSO control at 9 concentrations (1 nM to 100 µM) prepared by 3-fold serial dilutions was added to achieve a final concentration of 0 to 100 µM, followed by incubation for 72 hours in a 37°C, 5% CO2 incubator. After 72 hours of incubation, the compound-treated plates were removed, and Cell Counting Kit-8 solution was added at 10 µL/well and mixed well. The plates were then incubated for 2 hours in a CO2 incubator at 37°C, and the absorbance was measured at 450 nm using a microplate reader.
In addition, the data were expressed as a percentage relative to vehicle-treated cells, and GI50 values were calculated using GraphPad Prism 8.0 (GraphPad Software Inc., San Diego), and the results are shown in Table 8 below. As a control compound, ponatinib, a known RET inhibitor, was treated to calculate the GI50 values.

[8] = tested on: A-549; experiment: Cell proliferation inhibition, Cell Counting Kit-8, non-small cell lung cancer cell line; assay type: cell-based; conditions: A-549 cell line; 72 hours incubation; test concentration not given
[9] = Data 1, read-out: % Enzyme Activity (relative to DMSO controls) RET-CCDC6 (PTC1) Data 1
[10] = Data 2, read-out: % Enzyme Activity (relative to DMSO controls) RET-CCDC6 (PTC1) Data 2

T2 sequence (P07949 29-1114 G810R): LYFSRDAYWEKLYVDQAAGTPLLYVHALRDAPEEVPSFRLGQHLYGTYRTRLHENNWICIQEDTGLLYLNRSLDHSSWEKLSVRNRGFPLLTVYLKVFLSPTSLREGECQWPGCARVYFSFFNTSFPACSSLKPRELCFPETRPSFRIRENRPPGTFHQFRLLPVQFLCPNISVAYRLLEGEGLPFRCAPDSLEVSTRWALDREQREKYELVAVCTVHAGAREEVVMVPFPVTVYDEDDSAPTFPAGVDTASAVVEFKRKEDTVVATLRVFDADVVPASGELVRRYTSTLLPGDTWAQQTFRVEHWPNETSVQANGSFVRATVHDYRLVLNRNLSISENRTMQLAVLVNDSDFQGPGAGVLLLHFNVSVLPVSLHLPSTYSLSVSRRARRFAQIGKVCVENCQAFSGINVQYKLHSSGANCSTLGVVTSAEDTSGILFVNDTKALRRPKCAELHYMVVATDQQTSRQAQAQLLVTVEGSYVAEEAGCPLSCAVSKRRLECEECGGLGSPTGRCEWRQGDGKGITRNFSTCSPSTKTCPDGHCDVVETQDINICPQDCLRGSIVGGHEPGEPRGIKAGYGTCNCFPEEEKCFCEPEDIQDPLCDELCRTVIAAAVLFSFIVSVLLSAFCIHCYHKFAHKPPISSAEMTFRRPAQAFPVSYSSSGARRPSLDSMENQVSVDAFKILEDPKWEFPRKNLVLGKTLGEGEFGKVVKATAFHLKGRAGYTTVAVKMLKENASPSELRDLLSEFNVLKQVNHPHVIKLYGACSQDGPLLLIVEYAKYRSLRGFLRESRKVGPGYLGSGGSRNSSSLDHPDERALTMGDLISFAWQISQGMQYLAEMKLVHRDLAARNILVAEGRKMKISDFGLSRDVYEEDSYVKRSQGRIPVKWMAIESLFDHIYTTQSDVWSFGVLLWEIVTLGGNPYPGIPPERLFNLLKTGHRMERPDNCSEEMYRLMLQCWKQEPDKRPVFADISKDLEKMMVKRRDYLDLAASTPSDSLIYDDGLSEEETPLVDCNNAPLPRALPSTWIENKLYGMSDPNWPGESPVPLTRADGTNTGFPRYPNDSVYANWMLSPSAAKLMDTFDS
T1 sequence (P07949 29-1114): as the sequence (P07949 29-1114 G810R) above, with R782G counted along it
T3 sequence (P07949 29-1114 V804M): as the sequence (P07949 29-1114 G810R) above, with V776M, R782G counted along it
T5 sequence (P07949 whole entry, looked up): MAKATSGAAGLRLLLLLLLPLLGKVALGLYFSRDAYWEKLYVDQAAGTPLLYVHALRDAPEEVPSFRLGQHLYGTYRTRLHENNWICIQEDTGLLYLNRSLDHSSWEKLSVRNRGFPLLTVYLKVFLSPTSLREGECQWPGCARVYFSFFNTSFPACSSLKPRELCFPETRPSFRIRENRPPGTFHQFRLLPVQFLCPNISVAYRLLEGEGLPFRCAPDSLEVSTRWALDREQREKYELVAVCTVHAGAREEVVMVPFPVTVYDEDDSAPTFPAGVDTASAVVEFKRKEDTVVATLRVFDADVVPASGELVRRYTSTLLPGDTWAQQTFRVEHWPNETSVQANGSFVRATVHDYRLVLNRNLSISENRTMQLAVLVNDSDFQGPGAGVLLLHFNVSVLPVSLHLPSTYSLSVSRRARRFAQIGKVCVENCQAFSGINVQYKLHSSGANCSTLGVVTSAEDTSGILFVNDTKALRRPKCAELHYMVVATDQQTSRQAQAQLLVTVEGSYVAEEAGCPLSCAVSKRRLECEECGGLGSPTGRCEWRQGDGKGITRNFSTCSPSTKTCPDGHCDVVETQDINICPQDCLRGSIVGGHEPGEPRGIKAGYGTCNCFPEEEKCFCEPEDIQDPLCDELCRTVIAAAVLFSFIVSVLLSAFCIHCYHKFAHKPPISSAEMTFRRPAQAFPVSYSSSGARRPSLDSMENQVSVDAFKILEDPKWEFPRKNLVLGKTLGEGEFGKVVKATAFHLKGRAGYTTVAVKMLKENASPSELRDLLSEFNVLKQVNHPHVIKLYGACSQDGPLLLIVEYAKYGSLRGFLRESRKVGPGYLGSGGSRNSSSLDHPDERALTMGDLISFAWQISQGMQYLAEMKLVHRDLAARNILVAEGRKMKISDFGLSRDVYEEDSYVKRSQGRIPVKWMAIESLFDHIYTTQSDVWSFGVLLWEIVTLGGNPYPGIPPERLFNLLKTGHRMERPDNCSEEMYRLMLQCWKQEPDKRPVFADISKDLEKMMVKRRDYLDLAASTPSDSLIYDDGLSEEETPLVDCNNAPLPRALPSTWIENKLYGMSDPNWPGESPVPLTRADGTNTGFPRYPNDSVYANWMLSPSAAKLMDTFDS

Nc1cc(-c2ccc(N3CC(Oc4cccc(F)c4)C3)nc2)c2nccnc2c1 [Example 1, 8-(6-(3-(3-fluorophenoxy)azetidin-1-yl)pyridin-3-yl)quinoxalin-6-amine]
remaining activity at 1 µM [1]: 0.51% | IC50 [1]: 3.9 nM | remaining activity at 1 µM [2]: 24.5% | IC50 [2]: 275 nM | remaining activity at 1 µM [3]: 1.72% | IC50 [3]: 4.2 nM | IC50 [4]: 6.71 nM | remaining activity at 1 µM [5]: 0.01% | remaining activity at 10 µM [5, 9]: 0.75% | remaining activity at 10 µM [5, 10]: 0.52% | IC50 [6]: 2.2 nM | GI50 [7]: 1460 nM | Cell Proliferation (% of control) [8]: 34.36%

CCNc1cc(-c2ccc(N3CC(Oc4cccc(F)c4)C3)nc2)c2nccnc2c1 [Example 3, N-ethyl-8-(6-(3-(3-fluorophenoxy)azetidin-1-yl)pyridin-3-yl)quinoxalin-6-amine]
remaining activity at 1 µM [1]: 0.14% | IC50 [1]: 0.57 nM | remaining activity at 1 µM [2]: 11.4% | IC50 [2]: 142 nM | remaining activity at 1 µM [3]: 0.63% | IC50 [3]: 0.78 nM | IC50 [4]: 1.36 nM | remaining activity at 1 µM [5]: 18.6% | remaining activity at 10 µM [5, 9]: 0.73% | remaining activity at 10 µM [5, 10]: 0.91% | IC50 [6]: < 0.5 nM | GI50 [7]: 661 nM | Cell Proliferation (% of control) [8]: 25.06%

Reference: patent EP4796538A1, “NOVEL QUINOXALINE COMPOUNDS, MANUFACTURING METHOD THEREOF, AND USES THEREOF” (Gachon University of Industry-Academic Cooperation …, priority 2023, dated 2025)
